# Reference: patent US20250228235A1, “METHODS TO IMPROVE ORRGAN VIABILITY” (Mallinckrodt Pharmaceuticals Ireland Limited, priority 2017, published 2025)
# What was measured:
# [1] = tested on: cerebral mitochondrial function (cortical and hippocampal tissue); experiment: High-resolution respirometry of cortical and hippocampal tissue to assess mitochondrial function after cardiac arrest; format: in vivo, swine; settings: iNO 20 ppm vs placebo
# Source text: (§1) Neurologic injury following pediatric cardiac arrest (CA) remains common. Inhaled nitric oxide (iNO) may mitigate cerebral mitochondrial dysfunction, a critical convergence point for secondary brain injury, triggered by CA. It was hypothesized that following asphyxia and cardiac arrest, animals treated with 20 ppm iNO during CPR and four hours post-return of spontaneous circulation (ROSC) will have improved cerebral blood flow (CBF) and improved mitochondrial function as defined by increased respiratory control ratio (RCR) and decreased mitochondrial reactive oxygen species (mtROS) compared with placebo.
# (§2) 4-week-old swine received 7 minutes of asphyxia, then ventricular fibrillation. Guideline CPR was performed with compression depth (CD)≥⅓ of the chest diameter and standard epinephrine continued for 10 mins or until ROSC, with protocolized post-ROSC care. In a blinded fashion, subjects were randomized (iNO 20 ppm initiated 1 minute into CPR period, n=10, or placebo, n=10). […] Baseline and continuous CBF measurements were taken using invasive clinical and non-invasive optical instrumentation. Cortical and hippocampal tissue were analyzed by high-resolution respirometry to assess mitochondrial function. T-tests and ANOVA were used where applicable. Longitudinal hemodynamic variables were compared using generalized estimating equations to control for within-subject correlation.
# 4-week-old swine = experiment: Blinded, randomized, controlled pediatric swine asphyxial model of cardiac arrest (survival, cerebral blood flow, hemodynamics); format: in vivo
# Source text: as §1, §2
smiles,measurement,setting,value
"[N]=O [iNO, nitric oxide]","mtROS generation, cortex","[1]; cortex, p<0.001",significantly lower
same,Cortex RCR (respiratory control ratio),"[1]; cortex, p=0.04",significantly higher
same,hippocampal RCR (respiratory control ratio),"[1]; hippocampus, p=0.007",significantly higher
same,"mtROS generation, hippocampus","[1]; hippocampus, p=0.03",significantly lower
same,invasive or noninvasive CBF (cerebral blood flow),"4-week-old swine; during CPR and post-ROSC, iNO 20 ppm vs placebo",no significant differences
same,survived,"4-week-old swine; iNO 20 ppm initiated 1 minute into CPR, n=10, placebo 7/10, p=0.21",10/10
